According to ChEMBL document CHEMBL1201862, “PubChem BioAssay data set” (2004):
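Interpolation was linear, between the two tested concentrations surrounding the appropriate level; five concentrations were tested over 48 hours in 96-well plates. Abbreviation: GI50, concentration required for 50% inhibition of growth.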 Activity calls are given as the source filed them. No stated cut-off is given here; in the data, active = GI50 up to about 1.1 µM and inactive = higher.

Columns and labels:
Experiment in all cases: NCI anticancer screen, dose series, 48 h
SF-295 = tested on: SF-295
NCI-H522 = tested on: NCI-H522
SK-MEL-5 = tested on: SK-MEL-5
IGROV-1 = tested on: IGROV-1
RXF 393 = tested on: RXF 393
HOP-92 = tested on: HOP-92
XF498 = tested on: XF498
COLO 205 = tested on: COLO 205
ACHN = tested on: ACHN
DLD-1 = tested on: DLD-1
SN12C = tested on: SN12C
RPMI-8226 = tested on: RPMI-8226
DMS-273 = tested on: DMS-273
NCI-H23 = tested on: NCI-H23
CAKI-1 = tested on: CAKI-1
MDA-MB-231 = tested on: MDA-MB-231
MDA-MB-435 = tested on: MDA-MB-435
PC-3 = tested on: PC-3
DU-145 = tested on: DU-145
T47D = tested on: T47D

SMILES | GI50 (SF-295) | GI50 (NCI-H522) | GI50 (SK-MEL-5) | GI50 (IGROV-1) | GI50 (RXF 393) | GI50 (HOP-92) | GI50 (XF498) | GI50 (COLO 205) | GI50 (ACHN) | GI50 (DLD-1) | GI50 (SN12C) | GI50 (RPMI-8226) | GI50 (DMS-273) | GI50 (NCI-H23) | GI50 (CAKI-1) | GI50 (MDA-MB-231) | GI50 (MDA-MB-435) | GI50 (PC-3) | GI50 (DU-145) | GI50 (T47D)
CCCCCCCCCCCC1CC(=O)NCCCN(C)CCCCN(C)CCCN1C (stereo unspecified) [BUDMUNCHIAMINE A] | 1.64 µM (inactive) | 1.81 µM (inactive) | 1.97 µM (inactive) | 1.82 µM (inactive) | 1.6 µM (inactive) | 1.39 µM (inactive) | 1.65 µM (inactive) | 1.53 µM (inactive) | 1.69 µM (inactive) | 1.6 µM (inactive) | 1.74 µM (inactive) | 0.828 µM (active) | 1.24 µM (inactive) | 1.73 µM (inactive) | 2.08 µM (inactive) | – | – | – | – | –
Cc1cc(C)nc(NS(=O)(=O)c2ccc(Nc3c4ccc(Cl)cc4nc4c(C(=O)Nc5ccc(S(=O)(=O)N=C(N)N)cc5)cccc34)cc2)n1 | > 100 µM (inactive) | 34.4 µM (inactive) | – | – | 29.4 µM (inactive) | – | > 100 µM (inactive) | – | 96.6 µM (inactive) | > 100 µM (inactive) | > 100 µM (inactive) | 45.4 µM (inactive) | – | > 100 µM (inactive) | – | – | – | – | – | –
C/C(=N\NC(=N)N)C(CN1CCCCC1)C(c1ccccc1)c1c(O)c2ccccc2oc1=O (stereo unspecified) | > 100 µM (inactive) | 43.6 µM (inactive) | – | > 100 µM (inactive) | > 100 µM (inactive) | 47.8 µM (inactive) | > 100 µM (inactive) | > 100 µM (inactive) | > 100 µM (inactive) | > 100 µM (inactive) | > 100 µM (inactive) | > 100 µM (inactive) | – | > 100 µM (inactive) | > 100 µM (inactive) | – | – | – | – | –
CC(C)(C)c1cc(C(OCCl)(C(F)(F)F)C(F)(F)F)c2c(c1)C(C(F)(F)F)(C(F)(F)F)OC21c2ccccc2C(=O)c2ccccc21 | > 100 µM (inactive) | > 100 µM (inactive) | > 100 µM (inactive) | – | > 100 µM (inactive) | < 0.01 µM (active) | 34 µM (inactive) | > 100 µM (inactive) | > 100 µM (inactive) | > 100 µM (inactive) | > 100 µM (inactive) | > 100 µM (inactive) | > 100 µM (inactive) | > 100 µM (inactive) | > 100 µM (inactive) | – | – | – | – | –
[N-]=[N+]=N[C@H]1C[C@@H](CO)O[C@H]1n1cnc2c(N)ncnc21 | > 100 µM (inactive) | > 100 µM (inactive) | > 100 µM (inactive) | – | – | > 100 µM (inactive) | 31.2 µM (inactive) | > 100 µM (inactive) | > 100 µM (inactive) | > 100 µM (inactive) | > 100 µM (inactive) | – | > 100 µM (inactive) | > 100 µM (inactive) | > 100 µM (inactive) | – | – | – | – | –
Cc1cccc(NC(=O)Cc2nc3ccccc3s2)c1C | > 100 µM (inactive) | > 100 µM (inactive) | > 100 µM (inactive) | > 100 µM (inactive) | > 100 µM (inactive) | – | > 100 µM (inactive) | > 100 µM (inactive) | > 100 µM (inactive) | > 100 µM (inactive) | > 100 µM (inactive) | > 100 µM (inactive) | > 100 µM (inactive) | > 100 µM (inactive) | > 100 µM (inactive) | – | – | – | – | –
COc1cc2c(cc1OC)NC(=O)NC(Cc1ccc3c(c1)OCO3)CC2 (stereo unspecified) | 84.5 µM (inactive) | 29 µM (inactive) | > 100 µM (inactive) | > 100 µM (inactive) | > 100 µM (inactive) | 30.2 µM (inactive) | > 100 µM (inactive) | > 100 µM (inactive) | > 100 µM (inactive) | > 100 µM (inactive) | > 100 µM (inactive) | 83.9 µM (inactive) | > 100 µM (inactive) | > 100 µM (inactive) | > 100 µM (inactive) | – | – | – | – | –
COc1ccc2nc3cc(Cl)ccc3c(Sc3ccc([N+](=O)[O-])cc3)c2c1 | > 10 µM (inactive) | > 10 µM (inactive) | > 10 µM (inactive) | > 10 µM (inactive) | > 10 µM (inactive) | > 10 µM (inactive) | > 10 µM (inactive) | > 10 µM (inactive) | > 10 µM (inactive) | > 10 µM (inactive) | > 10 µM (inactive) | > 100 µM (inactive) | > 10 µM (inactive) | > 10 µM (inactive) | > 10 µM (inactive) | – | – | – | – | –
COc1ccccc1NC(=O)C1=C(C)NC(C)=C(C(=O)Nc2ccccc2OC)C1c1cccc2ccccc12 | 90.6 µM (inactive) | – | 34.4 µM (inactive) | > 100 µM (inactive) | 21.2 µM (inactive) | 1.38 µM (inactive) | 45.3 µM (inactive) | > 100 µM (inactive) | 11.7 µM (inactive) | 38.7 µM (inactive) | > 100 µM (inactive) | 9.29 µM (inactive) | 80.9 µM (inactive) | 21.7 µM (inactive) | 68.1 µM (inactive) | – | – | – | – | –
CCOC(=O)/C(=C\c1ccc[nH]1)C(=O)c1ccccc1 | > 100 µM (inactive) | > 100 µM (inactive) | > 100 µM (inactive) | – | 38.2 µM (inactive) | 22.6 µM (inactive) | > 100 µM (inactive) | > 100 µM (inactive) | > 100 µM (inactive) | > 100 µM (inactive) | > 100 µM (inactive) | 82 µM (inactive) | 26.2 µM (inactive) | > 100 µM (inactive) | > 100 µM (inactive) | – | – | – | – | –
CC12Oc3ccc4ccccc4c3C1c1c(ccc3ccccc13)O2 (stereo unspecified) | 58.6 µM (inactive) | > 100 µM (inactive) | > 100 µM (inactive) | > 100 µM (inactive) | > 100 µM (inactive) | 17.1 µM (inactive) | > 100 µM (inactive) | > 100 µM (inactive) | > 100 µM (inactive) | > 100 µM (inactive) | > 100 µM (inactive) | – | > 100 µM (inactive) | > 100 µM (inactive) | > 100 µM (inactive) | – | – | – | – | –
CCOC(=O)NC(=O)c1cn(CCN2CCN(c3ncnc4[nH]cnc34)CC2)c(=O)[nH]c1=O | > 100 µM (inactive) | > 100 µM (inactive) | > 100 µM (inactive) | > 100 µM (inactive) | > 100 µM (inactive) | 10.6 µM (inactive) | > 100 µM (inactive) | > 100 µM (inactive) | > 100 µM (inactive) | > 100 µM (inactive) | > 100 µM (inactive) | > 100 µM (inactive) | – | > 100 µM (inactive) | – | – | – | – | – | –
CC1=NN(C(=O)c2ccccc2O)C(=O)/C1=C/c1ccc([N+](=O)[O-])cc1 | 0.131 µM (active) | 0.615 µM (active) | 0.239 µM (active) | 0.0635 µM (active) | < 0.01 µM (active) | 0.411 µM (active) | 0.664 µM (active) | 16.5 µM (inactive) | 0.106 µM (active) | 0.0643 µM (active) | 0.372 µM (active) | 1.88 µM (inactive) | – | 0.177 µM (active) | 0.455 µM (active) | 26.9 µM (inactive) | 0.106 µM (active) | 1.36 µM (inactive) | 0.481 µM (active) | 1.89 µM (inactive)
Cc1cc2c(C)nn(Cc3ccccc3)c2c(C(N)=O)c1C | > 100 µM (inactive) | 99.1 µM (inactive) | > 100 µM (inactive) | > 100 µM (inactive) | – | > 100 µM (inactive) | > 100 µM (inactive) | > 100 µM (inactive) | > 100 µM (inactive) | > 100 µM (inactive) | > 100 µM (inactive) | > 100 µM (inactive) | > 100 µM (inactive) | > 100 µM (inactive) | – | – | – | – | – | –
COc1ccc(C2[C@H]3C(=O)N(c4ccc(Cc5ccc(N6C(=O)[C@@H]7ON(c8ccccc8)C(c8ccc(OC)cc8)[C@@H]7C6=O)cc5)cc4)C(=O)[C@H]3ON2c2ccccc2)cc1 (stereo partly specified) | > 100 µM (inactive) | > 100 µM (inactive) | 96.6 µM (inactive) | > 100 µM (inactive) | > 100 µM (inactive) | 49.2 µM (inactive) | – | > 100 µM (inactive) | > 100 µM (inactive) | > 100 µM (inactive) | > 100 µM (inactive) | > 100 µM (inactive) | > 100 µM (inactive) | > 100 µM (inactive) | > 100 µM (inactive) | – | – | – | – | –
CCO/C(CCn1[nH]c(=O)c(Cl)c(Cl)c1=O)=N\NC(=O)C(=O)NN | > 100 µM (inactive) | > 100 µM (inactive) | > 100 µM (inactive) | > 100 µM (inactive) | > 100 µM (inactive) | – | > 100 µM (inactive) | > 100 µM (inactive) | > 100 µM (inactive) | > 100 µM (inactive) | > 100 µM (inactive) | > 100 µM (inactive) | > 100 µM (inactive) | > 100 µM (inactive) | > 100 µM (inactive) | – | – | – | – | –
C[N+](C)(C)CC1CCC/C1=N\OC(=O)c1ccccc1 (stereo unspecified) | > 100 µM (inactive) | > 100 µM (inactive) | > 100 µM (inactive) | > 100 µM (inactive) | > 100 µM (inactive) | – | > 100 µM (inactive) | > 100 µM (inactive) | > 100 µM (inactive) | > 100 µM (inactive) | > 100 µM (inactive) | > 100 µM (inactive) | – | > 100 µM (inactive) | – | – | – | – | – | –
Cc1ccc(C2=NN(C)COC2C(F)(F)F)cc1 (stereo unspecified) | > 100 µM (inactive) | > 100 µM (inactive) | > 100 µM (inactive) | > 100 µM (inactive) | > 100 µM (inactive) | > 100 µM (inactive) | – | > 100 µM (inactive) | > 100 µM (inactive) | > 100 µM (inactive) | > 100 µM (inactive) | > 100 µM (inactive) | > 100 µM (inactive) | > 100 µM (inactive) | > 100 µM (inactive) | – | – | – | – | –
O=S(=O)(c1ccccc1)C1(C2(S(=O)(=O)c3ccccc3)CCN=N2)CCN=N1 (stereo unspecified) | > 100 µM (inactive) | > 100 µM (inactive) | – | > 100 µM (inactive) | > 100 µM (inactive) | – | > 100 µM (inactive) | > 100 µM (inactive) | > 100 µM (inactive) | > 100 µM (inactive) | > 100 µM (inactive) | > 100 µM (inactive) | > 100 µM (inactive) | > 100 µM (inactive) | > 100 µM (inactive) | – | – | – | – | –
